Assay results from patent publication US8815945B2, “Use of bis [thiohydrazide amide] compounds such as elesclomol for treating cancers” (priority 2010, dated 2014).

How the values were obtained:
[1] = tested on: HIF-1α; type: cell-based
[2] = tested on: M14 (MDA-MB-435) melanoma cells; experiment: Cell viability of sparse and dense M14 (MDA-MB-435) melanoma cells under normoxia or hypoxia (FIG. 5b); type: cell-based; settings: normoxia (20%) or hypoxia (0.1%), viability at 48 h by cellular ATP
Protocol: In hypoxic cells, stabilized HIF-1α shunts away energy carbon flow from mitochondria (illustrated graphically in FIG. 4.). The regulatory subunit of HIF-1α is stabilized under hypoxic conditions, and thus-stabilized HIF-1α forms active HIF-1 (HIF-1α/1b heterodimer), whereupon HIF-1 induces LDH-A to convert pyruvate to lactate. The potency of the bis[thiohydrazide amide] compound elesclomol on sparse and dense melanoma cells was assayed under hypoxic and normoxic conditions. Total HIF-1α (cytosolic+nuclear, FIG. 5a) and cell viability of M14 (MDA-MB-435) melanoma cells (FIG. 5b) was evaluated at 12 h and 48 h by ELISA (R&D systems) and cellular ATP levels (CellTiter Glo-Promega), respectively, under normoxia (20%) or hypoxia (0.1%) with sparse (2 k cells/well) or dense (20 k cells/well) in 96-well plates.

[3] = tested on: metastatic melanoma; experiment: Phase 3 trial in metastatic melanoma, stratified by baseline LDH; type: in vivo, patients; settings: for median PFS: elesclomol arm
Text: In a Phase 3 trial in metastatic melanoma, the level of baseline lactate dehydrogenase (LDH) in patients emerged as an important prognostic factor for treatment outcomes with elesclomol. A differential response to treatment with elesclomol was shown, based on the level of baseline LDH in the plasma, an established prognostic biomarker in melanoma and a pre-specified stratification variable in the trial.

[4] = tested on: Caki-1 cells; experiment: Cell viability by CellTiter Glo ATP assay at 24 h, Caki-1 cells (FIG. 6b); type: cell-based; settings: HIF-1α-low Caki-1 cells, 2,500 cells/well
Protocol: (§1) To further investigate a correlation between HIF-1α and elesclomol potency, lines within the same cancer phenotype but showing distinct levels of HIF1α were evaluated. Caki-1 and -2 are renal cancer cell lines established from the same patient; Caki-2 cells constitutively express HIF-1α while the expression in Caki-1 cells is conditional. VHL protein is a negative regulator of HIF-1α, and a VHL mutation accompanies constitutive HIF-1α expression. In FIG. 6a, cells were serially diluted to the densities indicated. Cell lysates were harvested for ELISA at 24 h after seeding. In FIG. 6b, cells were seeded at 2,500 cells/well-96 plate. Cell viability was evaluated by CellTiter Glo ATP assay at 24 h.

[5] = tested on: Caki-2 cells; experiment: Cell viability by CellTiter Glo ATP assay at 24 h, Caki-2 cells (FIG. 6b); type: cell-based; settings: HIF-1α-high Caki-2 cells, 2,500 cells/well
Protocol: as §1

[6] = tested on: 769-P; experiment: Cell viability (CellTiter Glo ATP) with elesclomol under normoxia/hypoxia, 769-P; type: cell-based; settings: 769-P cell line, which did not elevate LDH-A activity under hypoxic conditions
Protocol: FIG. 7 illustrates experimental work done with a variety of cells showing how high levels of HIF-1α and LDH-A activity correlate with the reduced sensitivity to elesclomol. FIGS. 7a and 7b show the reductive (i.e., pyruvate to lactate) LDH activity and HIF-1α level under normoxic and hypoxic conditions. The cells set forth in the Figures and in Table 1, below were seeded at 2 k cells/well in a 96-well plate and cultured under normoxic (20% O2) and hypoxic (0.1% O2) conditions to determine their LDH activity and HIF-1α level. LDH-A activity (measuring reduction of pyruvate to lactate by monitoring NADH at 340 nm) and HIF-1α were analyzed at 24 h. […] An experiment was then run to treat these same cell lines with vehicle or 50 nM elesclomol under normoxic (20% O2) and hypoxia (0.1% O2) conditions for 36 h (FIG. 7d.) Cell viability was evaluated by cellular ATP (CellTiter Glo, Promega).

[7] = tested on: CoCl2-treated M14 cells; experiment: Cell viability of CoCl2-treated M14 cells with elesclomol and oxamate (FIG. 10, 11); type: cell-based; settings: 50 nM elesclomol, 50 μM CoCl2, 25 mM oxamate, 48 h
Protocol: By inhibiting LDH, the conversion of pyruvate to lactate is shut down, as illustrated in the left panel of FIG. 10. Oxamate, a pyruvate analog and LDH-A inhibitor, was tested on CoCl2-treated M14 cells as illustrated in the right panel of FIG. 10. Cell viability was assessed after 48 h incubation with or without elesclomol and oxamate.
Cell viability was assessed after 48 h incubation with or without 50 nM elesclomol in the presence or absence of 50 μM CoCl2 and 25 mM oxamate.

[8] = tested on: M14 melanoma cells; experiment: Cell viability (CCK8 assay) in M14 melanoma cells; type: cell-based; settings: Homo sapiens, confluent M14 cells, 48 h incubation
Protocol: M14 melanoma cells were seeded at 50,000 cells per well of 96-well plate in 100 μl of Dulbecco's […] (DMEM) supplemented with 10% fetal bovine serum. Cells were cultured at 37° C. under 5% CO2-95% air. After 16 hours of incubation, the test compound was added to the cell culture. The compound was first diluted in 100% dimethyl sulfoxide (DMSO) at 400-fold of the final concentrations actually used in the assay. The DMSO solution was next diluted 20 fold with the culture medium, and then finally added to the assay wells at another 20-fold dilution. Assay medium included the test compound with concentrations as indicated with 0.25% DMSO. Cell viability was measured with a CCK8 assay (as described in the Technical Manual for Cell Counting Kit-8, Product #CK04-11, CK04-13 and CK04-20, Dojindo Molecular Technologies, Inc. MD; Tantular, I. S. et al. Tropical Medicine and International Health, 8(6), 569-574, 2003) in the last 15 minutes after a 48 h incubation with the test compound. Each bar of the figure expresses average percent inhibition against vehicle (0.25% DMSO) control (n=4). Error bars indicate standard deviation.

Row | IC50 [8] | Structure (SMILES) | HIF-1α level [1] | reductive LDH activity [1] | potency of elesclomol, normoxia vs hypoxia [2] | survival endpoint ([3]; elevated LDH population) | median PFS ([3]; elevated LDH population, 32% of patients) | PFS HR ([3]; elevated LDH population, p=0.549) | overall survival ([3]; normal LDH population) | safety profile ([3]; normal LDH population) | median PFS ([3]; normal LDH population, 68% of patients) | PFS HR ([3]; normal LDH population, p=0.027) | sensitivity of cells to elesclomol [4] | sensitivity of cells to elesclomol [5] | change in sensitivity to elesclomol under hypoxic conditions [6] | elesclomol activity upon co-treatment with oxamate (cell viability) [7]
1 | – | [Cl-].[Cl-].[Co+2] [CoCl2] | increases | increased | – | – | – | – | – | – | – | – | – | – | – | –
2 | > 12.5 µM | CN(NC(=O)CC(=O)NN(C)C(=S)c1ccccc1)C(=S)c1ccccc1 [elesclomol, N-malonyl-bis(N′-methyl-N′-thiobenzoylhydrazide)] | – | – | increased potency | negative impact | 1.8 months | 1.10 | no impact on overall survival | acceptable safety profile | 3.6 months | 0.76 | sensitive | resistant | no change | remains active
